From patent US11466007B2, “Substituted lactams showing serotonin 5-HT receptor activity” (Sumitomo Pharma Co., Ltd., priority 2018, dated 2022)
Read-outs that look alike come from different tables or passages of the source.

Columns and labels:
[1] = target: T1, human 5-HT1A receptor (Homo sapiens (Human), UniProt P08908); test: Test 2: agonist activity for human 5-HT1A receptor ([35S]GTPγS binding); assay type: biochemical; settings: for EC50: [35S]GTPγS binding, CHO cell membrane fraction expressing human 5-HT1A receptor
Method: Test 2: Evaluation of Agonist Activity for Human 5-HT1A Receptor
CHO cell membrane fraction in which human 5-HT1A receptor was expressed as used in Test 1 was purchased. To a buffer containing guanosine diphosphate were added a test compound dissolved in DMSO, each receptor membrane sample diluted with buffer, and [^35S] Guanosine 5′-O-[gamma-thio]triphosphate (GTPγS). The mixture was incubated at room temperature for 60 minutes. Then, the mixture was added quickly on a glassfiber filter plate (Multiscreen FB, Millipore, Inc.), and vacuum-filtered. Radioactivity remaining on the […] was measured with a liquid scintillation counter. Agonist activity was calculated from the following formula.

[2] = target: T2, human 5-HT2A receptor (Homo sapiens (Human), UniProt P28223); test: Test 1: binding activity for human 5-HT2A receptor ([3H]Ketanserin); settings: CHO cell membrane fraction
Method: (§1) Test 1: Evaluation of Binding Activity for Human 5-HT1A Receptor, Human 5-HT2A Receptor, and Human D2 Receptor
(§2) Binding affinity of the present compound for human 5-HT1A receptor, human 5-HT2A receptor, and human D2 receptor was measured by the following procedures.
(§3) Each mixture was incubated at room temperature for 60 minutes. Then, the mixture was added quickly on a glassfiber filter plate (Multiscreen FB, Millipore, Inc.) coated with 0.3% aqueous polyethylenimine, and vacuum-filtered. Radioactivity remaining on the filter was measured with a liquid scintillation counter (PerkinElmer, Inc.). Binding inhibition rate was calculated from the following formula.
(§4) Ki of each compound was calculated from the following formula. Binding inhibition constant (Ki)=IC50/(1+S/Kd) wherein S is concentration of ligand; Kd is a binding dissociation constant of ligand to membrane, which is calculated from a saturated binding experiment conducted with the same cell membrane. A small Ki value means strong binding ability to a receptor.

[3] = Test 4: metabolic stability test in human hepatic microsome; assay type: in vitro ADME; settings: 0.1 mg/mL microsome, 0.1 μmol/L compound, NADPH, 37° C., 30 minutes
Method: Test 4: Metabolic Stability Test in Human Hepatic Microsome
The stability of the present compound in human hepatic microsome metabolism was evaluated as mentioned below. Human hepatic microsome was obtained from Xenontech. Human hepatic microsome, NADPH, and each test compound were mixed in 25 mmol/L phosphate buffer solution (pH 7.4) to reach the following concentrations as shown below, and the mixture was incubated at 37° C. for 30 minutes. • Human hepatic microsome: 0.1 mg/mL • NAPDH: 3.2 mmol/L • Test compound: 0.1 μmol/L
The residual ratio of the test compound in each sample after 30 minutes was measured by LC-MS, and the metabolic stability in human hepatic microsome was calculated from the following formula. Metabolic stability in human hepatic microsome (mL/min/mg protein)=−LN(residual ratio)/30/0.1

[4] = target: T1, human 5-HT1A receptor; test: Test 1: binding activity for human 5-HT1A receptor ([3H]8-OH-DPAT); settings: CHO cell membrane fraction
Method: as §1, §2, §3
as §4, with “IC50 value was calculated by Hill analysis (Physiology, 1910, 40, 190-200). Ki of” for “Ki of”

[5] = target: human D2 receptor (Homo sapiens (Human), UniProt P14416); test: Test 1: binding activity for human D2 receptor ([3H]Spiperone); settings: for Ki: CHO cell membrane fraction, [3H]Spiperone; for D2 Ki/5-HT1A Ki: ratio of D2 Ki to 5-HT1A Ki; for D2 Ki/5-HT2A Ki: ratio of D2 Ki to 5-HT2A Ki
Method: as §1, §2, §3, §4

[6] = target: hERG channel (Homo sapiens (Human), UniProt Q12809); test: Test 6-1: inhibitory activity for hERG channel (auto patch clamp, Qpatch); assay type: cell-based; settings: for IC50: hERG-CHO cells, whole cell patch clamp, Qpatch, read-out: hERG inhibition IC50
Method: Test 6-1: Evaluation of Inhibitory Activity for hERG Channel
Inhibitory activity of the present compound for hERG channel was measured by whole cell patch clamp method with an auto patch clamp system using CHO cells in which hERG channel involved in human rapidly activating delayed rectifier potassium current (IKr) was forcibly expressed.
hERG-CHO cells purchased from ChanTest Cop. were cultured in a CO2 incubator at 37° C., and dissociated from a flask with trypsin shortly before the measurement of hERG current, to prepare a cell suspension.
Extracellular and intracellular fluid used in the measurement were prepared as follows.
Extracellular fluid: 2 mmol/L CaCl2, 1 mmol/L MgCl2, 10 mmol/L HEPES, 4 mmol/L KCl, 145 mmol/L NaCl, 10 mmol/L Glucose
Intracellular fluid: 5.4 mmol/L CaCl2, 1.8 mmol/L MgCl2, 10 mmol/L HEPES, 31 mmol/L KOH, 10 mmol/L EGTA, 120 mmol/L KCl, 4 mmol/L Na2-ATP
Test compound solution: Test compound was dissolved in DMSO to reach the concentration of 2 mmol/L or 20 mmol/L, in order to prepare a test compound solution. […] (Measurement of Current Value and Data Analysis)
The cell suspension, the extracellular fluid, the intracellular fluid, and the measurement plate were set in the auto patch clamp system, and hERG current was measured by whole cell patch clamp method. […] Each pulse interval was 15 seconds. The data analysis was carried out with Qpatch Assay Software (Biolin Scientific). The test was carried out by applying incrementally 4 concentrations of each test compound, and the average of the maximum peak tail currents which were obtained from the last 3 stimulations in each concentration was determined as the evaluated data. Based on the current inhibition rate for a pre-applied current at each concentration of each test compound, IC50 value was calculated by Hill equation with the software.

[7] = Test 10: intracerebral transferability of rats (Kp,uu,brain); assay type: in vivo, SD or WKY rats; settings: rat, brain and plasma, unbound drug concentration ratio brain/plasma, s.c. or oral, 0.5, 1 or 2 hours
Method: Test 10: Evaluation of Intracerebral Transferability (Test for Intracerebral Transferability of Rats)
In this test, intracerebral transferability of the present compounds was evaluated by the following method. The present compounds were subcutaneously administered as a solution in saline, or orally administered as a suspension in methyl cellulose to 7-week-old SD or WKY rats. Plasma and brain were collected on 0.5 hours, 1 hour, or 2 hours after the administration to measure the drug concentrations in plasma and brain by LC-MS.
Binding rates of the present compound to plasma and brain protein were measured by equilibrium dialysis method.
Kp,uu,brain (unbound drug concentration ratio between brain/plasma) can be calculated by applying the compound concentrations in plasma and brain and the binding rates to plasma and brain protein obtained from the above test into the following formula. Kp,uu,brain=(Compound concentration in brain×(100−Binding rate to brain protein (%))/100)/(Compound concentration in plasma×(100−Binding rate to plasma protein (%))/100)

[8] = target: P-gp (MDR1) (Homo sapiens (Human), UniProt P08183); test: Test 9: P-gp substrate property (NFR, MDCKII and MDR1-MDCKII cells); assay type: in vitro ADME; settings: ratio of Papp B-A/Papp A-B in MDR1-MDCKII cells to that in MDCKII cells
Method: Evaluation test for binding was carried out as follows with the CHO cell membrane fraction in which human target receptor was expressed. […] Each mixture was incubated at room temperature, added quickly on a glassfiber filter plate (Multiscreen FB, Millipore, Inc.), and vacuum-filtered. Radioactivity remaining on the filter was measured with a liquid scintillation counter (PerkinElmer, Inc.). Binding inhibition rate was calculated from the following formula.
NFR (Net Flux Ratio), which is an index of P-gp substrate property, can be calculated as follows. MDCKII (Madin-Darby canine kidney strain II) cells and MDR1-MDCKII cells in which MDR1 (multidrug resistance protein 1) was overexpressed were used to measure an apparent permeability coefficient (Papp A-B) from lumen (A) to basement membrane (B) and an apparent permeability coefficient (Papp B-A) from basement membrane (B) to lumen (A) of both MDCKII cells and MDR1-MDCKII cells. NFR (Net Flux Ratio) was calculated from the ratio between Ratio (Papp B-A/Papp A-B) of an apparent permeability coefficient of MDR1-MDCKII cells and Ratio of an apparent permeability coefficient of MDCKII cells.

[9] = target: T2, human 5-HT2A receptor; test: Test 3: antagonist activity for human 5-HT2A receptor (aequorin luminescence, CHO-K1 cells); assay type: cell-based
Method: Test 3: Evaluation of Antagonist Activity for Human 5-HT2A Receptor
Aequorin, Gα16 protein, and each receptor were transiently expressed in CHO-K1 cells (Chinese hamster ovary). […] Each compound dissolved in DMSO was added thereto, and changes in luminescence were measured by FDSS/μCELL functional drug screening system (Hamamatsu Photonics K.K.). Antagonist activity was calculated from the following formula.
Antagonist activity (%)=100×{(Luminescence of well in the presence of 1 nmol/L 5-HT−Luminescence of well containing solvent)−(Luminescence of well in the presence of test compound and 1 nmol/L 5-HT−Luminescence of well containing solvent)}/(Luminescence of well in the presence of 1 nmol/L 5-HT−Luminescence of well containing solvent)

[10] = agonist activity in the presence of 10 μM compound, relative to 100 μmol/L 5-HT

T1 sequence (P08908 whole entry): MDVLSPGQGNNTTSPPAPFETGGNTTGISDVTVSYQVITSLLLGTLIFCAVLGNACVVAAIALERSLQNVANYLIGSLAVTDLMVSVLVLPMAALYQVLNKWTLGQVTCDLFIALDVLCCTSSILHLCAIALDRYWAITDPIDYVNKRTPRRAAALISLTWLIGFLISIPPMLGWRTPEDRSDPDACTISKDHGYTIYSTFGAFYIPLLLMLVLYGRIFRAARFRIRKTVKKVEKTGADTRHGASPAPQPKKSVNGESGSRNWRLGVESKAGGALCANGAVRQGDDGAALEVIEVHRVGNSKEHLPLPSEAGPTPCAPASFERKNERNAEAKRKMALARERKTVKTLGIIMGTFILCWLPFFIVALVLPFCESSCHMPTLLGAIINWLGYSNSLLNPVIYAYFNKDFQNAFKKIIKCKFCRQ
Chain of P-gp (MDR1) (P08183 whole entry, species assumed): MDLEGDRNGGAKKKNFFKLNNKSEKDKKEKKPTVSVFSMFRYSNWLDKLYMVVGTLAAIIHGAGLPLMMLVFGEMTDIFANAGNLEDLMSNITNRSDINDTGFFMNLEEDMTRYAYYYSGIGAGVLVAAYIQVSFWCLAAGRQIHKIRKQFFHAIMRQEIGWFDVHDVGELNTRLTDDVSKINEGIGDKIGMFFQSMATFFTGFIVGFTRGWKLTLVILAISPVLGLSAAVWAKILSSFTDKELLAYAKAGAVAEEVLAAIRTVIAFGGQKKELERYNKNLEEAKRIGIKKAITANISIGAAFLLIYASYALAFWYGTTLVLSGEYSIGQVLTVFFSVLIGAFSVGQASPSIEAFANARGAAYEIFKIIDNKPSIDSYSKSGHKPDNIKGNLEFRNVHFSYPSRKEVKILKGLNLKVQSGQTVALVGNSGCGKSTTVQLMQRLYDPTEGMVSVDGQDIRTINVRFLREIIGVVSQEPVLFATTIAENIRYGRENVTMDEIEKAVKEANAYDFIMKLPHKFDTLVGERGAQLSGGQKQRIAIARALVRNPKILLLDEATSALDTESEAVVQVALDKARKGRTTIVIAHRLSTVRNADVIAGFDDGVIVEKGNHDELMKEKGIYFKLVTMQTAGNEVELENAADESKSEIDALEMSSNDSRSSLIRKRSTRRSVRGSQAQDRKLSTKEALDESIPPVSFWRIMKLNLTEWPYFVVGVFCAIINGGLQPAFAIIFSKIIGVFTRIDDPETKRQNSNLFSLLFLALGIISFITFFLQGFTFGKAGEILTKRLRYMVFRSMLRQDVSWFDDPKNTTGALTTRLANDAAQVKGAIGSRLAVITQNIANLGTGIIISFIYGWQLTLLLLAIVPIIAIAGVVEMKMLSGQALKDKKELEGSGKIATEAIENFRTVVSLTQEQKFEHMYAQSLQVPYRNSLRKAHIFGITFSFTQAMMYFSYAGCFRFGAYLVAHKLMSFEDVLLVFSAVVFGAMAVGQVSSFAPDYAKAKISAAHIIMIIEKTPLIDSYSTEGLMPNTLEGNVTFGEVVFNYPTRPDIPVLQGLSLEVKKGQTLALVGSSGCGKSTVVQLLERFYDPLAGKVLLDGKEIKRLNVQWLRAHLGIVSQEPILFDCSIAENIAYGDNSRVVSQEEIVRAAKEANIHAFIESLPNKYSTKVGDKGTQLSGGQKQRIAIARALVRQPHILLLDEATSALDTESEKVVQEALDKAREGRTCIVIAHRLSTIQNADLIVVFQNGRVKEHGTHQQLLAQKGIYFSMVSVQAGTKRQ
Chain of hERG channel (Q12809 whole entry): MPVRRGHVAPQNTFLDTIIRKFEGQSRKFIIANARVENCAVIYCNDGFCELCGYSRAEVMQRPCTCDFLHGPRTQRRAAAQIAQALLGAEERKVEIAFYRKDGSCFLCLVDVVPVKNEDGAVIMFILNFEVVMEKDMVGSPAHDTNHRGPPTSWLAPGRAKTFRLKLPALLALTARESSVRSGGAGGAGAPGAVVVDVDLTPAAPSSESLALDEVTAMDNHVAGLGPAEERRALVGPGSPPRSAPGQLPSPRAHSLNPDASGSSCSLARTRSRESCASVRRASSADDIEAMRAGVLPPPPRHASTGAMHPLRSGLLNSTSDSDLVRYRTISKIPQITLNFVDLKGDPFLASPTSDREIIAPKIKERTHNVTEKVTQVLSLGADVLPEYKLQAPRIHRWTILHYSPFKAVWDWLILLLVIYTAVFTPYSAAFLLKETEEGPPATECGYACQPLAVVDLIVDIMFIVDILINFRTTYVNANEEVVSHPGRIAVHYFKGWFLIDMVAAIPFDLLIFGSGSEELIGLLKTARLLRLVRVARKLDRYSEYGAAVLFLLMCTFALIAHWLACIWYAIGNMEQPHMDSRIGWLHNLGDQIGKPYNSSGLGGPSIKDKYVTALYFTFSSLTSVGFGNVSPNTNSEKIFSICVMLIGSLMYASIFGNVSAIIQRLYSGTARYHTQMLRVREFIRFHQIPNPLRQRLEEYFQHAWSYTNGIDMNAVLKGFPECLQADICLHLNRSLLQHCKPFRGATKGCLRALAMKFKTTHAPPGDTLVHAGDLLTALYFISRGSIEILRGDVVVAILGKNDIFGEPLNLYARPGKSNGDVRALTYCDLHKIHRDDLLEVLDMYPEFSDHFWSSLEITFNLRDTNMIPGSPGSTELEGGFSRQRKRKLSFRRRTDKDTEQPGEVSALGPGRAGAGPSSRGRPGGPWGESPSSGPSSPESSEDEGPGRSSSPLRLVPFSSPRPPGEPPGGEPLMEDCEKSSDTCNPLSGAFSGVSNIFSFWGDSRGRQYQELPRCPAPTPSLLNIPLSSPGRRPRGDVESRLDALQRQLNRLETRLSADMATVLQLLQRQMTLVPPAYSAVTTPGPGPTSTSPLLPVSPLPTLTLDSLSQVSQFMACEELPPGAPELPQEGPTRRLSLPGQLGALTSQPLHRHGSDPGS
Chain of human D2 receptor (P14416 whole entry): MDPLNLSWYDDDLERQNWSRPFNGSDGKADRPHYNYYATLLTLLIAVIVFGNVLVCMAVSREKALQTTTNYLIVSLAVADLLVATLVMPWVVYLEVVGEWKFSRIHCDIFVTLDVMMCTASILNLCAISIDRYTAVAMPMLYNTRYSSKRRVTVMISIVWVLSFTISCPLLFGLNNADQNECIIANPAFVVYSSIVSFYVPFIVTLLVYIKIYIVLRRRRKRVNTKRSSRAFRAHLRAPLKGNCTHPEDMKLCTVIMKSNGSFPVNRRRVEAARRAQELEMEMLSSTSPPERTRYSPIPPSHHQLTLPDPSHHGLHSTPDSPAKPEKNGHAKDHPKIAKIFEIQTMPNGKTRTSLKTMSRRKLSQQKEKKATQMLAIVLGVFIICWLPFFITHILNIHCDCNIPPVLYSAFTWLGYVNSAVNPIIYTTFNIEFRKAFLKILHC
T2 sequence (P28223 whole entry): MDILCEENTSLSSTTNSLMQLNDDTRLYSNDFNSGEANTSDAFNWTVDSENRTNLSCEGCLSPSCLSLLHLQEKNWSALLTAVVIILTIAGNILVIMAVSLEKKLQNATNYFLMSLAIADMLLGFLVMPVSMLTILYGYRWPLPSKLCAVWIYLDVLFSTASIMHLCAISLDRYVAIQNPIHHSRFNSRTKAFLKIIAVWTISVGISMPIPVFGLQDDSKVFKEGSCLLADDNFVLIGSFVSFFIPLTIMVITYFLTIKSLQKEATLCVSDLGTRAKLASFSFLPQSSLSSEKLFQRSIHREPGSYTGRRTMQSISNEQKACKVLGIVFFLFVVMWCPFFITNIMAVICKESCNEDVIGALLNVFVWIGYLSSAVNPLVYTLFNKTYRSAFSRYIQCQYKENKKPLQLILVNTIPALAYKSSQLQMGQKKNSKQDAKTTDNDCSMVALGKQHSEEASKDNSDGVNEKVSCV

SMILES | Emax at 10 µM [1, 10] | Metabolic stability in human hepatic microsome [3] | Ki [4] | Ki [5] | NFR (Net Flux Ratio) [8] | also measured
O=C1c2cnccc2CCN1CCN1CCC(c2noc3ccccc23)CC1 [Example 13] | 56% | <0.01 mL/min/mg protein |  |  |  | Ki [2]: 8.4 nM
COc1cc2c(cn1)C(=O)N(CCN1CCC(c3noc4ccccc34)CC1)CC2 [Example 20] |  | 0.091 mL/min/mg protein | 0.77 nM | 1890 nM |  | 5-HT1A agonist activity Emax [1, 10]: 52%
Cc1cc2c(cn1)C(=O)N(CCN1CCC(c3noc4ccccc34)CC1)CC21CC1 [Example 21] | 59% | 0.323 mL/min/mg protein | 8.62 nM | 2120 nM |  | IC50 ([6]; human, CHO cells expressing hERG channel): 8000 nM
Cc1nc2c(o1)C(=O)N(CCN1CCC(c3noc4ccccc34)CC1)CC2 [Example 35, 5-{2-[4-(1,2-Benzoisoxazol-3-yl)piperidin-1-yl]ethyl}-2-methyl-6,7-dihydro[1,3]oxazolo[5,4-c]pyridin-4(5H)-one] |  | <0.01 mL/min/mg protein |  |  |  | Kp uu at 2 h [7]: 1.44
Cn1cc2c(n1)CCN(CCN1CCN(c3nsc4ccccc34)CC1)C2=O [Example 36, 5-{2-[4-(1,2-Benzoisothiazol-3-yl)piperazin-1-yl]ethyl}-2-methyl-2,5,6,7-tetrahydro-4H-pyrazolo[4,3-c]pyridin-4-one] |  | 0.085 mL/min/mg protein |  |  | 1.8 | Kp uu at 2 h [7]: 0.08
Cn1ncc2c1CCCN(CCN1CCC(c3noc4ccccc34)CC1)C2=O [Example 43] |  | <0.01 mL/min/mg protein |  |  | 2.2 | Kp uu at 2 h [7]: 0.18
Cn1cnc2c1CCN(CCN1CCN(c3nsc4ccccc34)CC1)C2=O [Example 54] |  | <0.01 mL/min/mg protein |  |  | 6.6 | 
Cn1ncc2c1C(=O)N(CCN1CCN(c3nsc4ccccc34)CC1)CC2 [Example 59] |  |  |  |  | 1.1 | D2 Ki/5-HT1A Ki [5]: 63
Cn1ccc2c1CCN(CCN1CCC(c3noc4ccccc34)CC1)C2=O [Example 60] |  | 0.018 mL/min/mg protein |  |  | 1.5 | D2 Ki/5-HT1A Ki [5]: 19
Cn1nc(Br)c2c1CCN(CCN1CCN(c3nsc4ccccc34)CC1)C2=O [Example 69] | 45% |  | 10.4 nM | 360 nM |  | 
Cc1ccc2c(C3CCN(CCn4ccc5cccnc5c4=O)CC3)noc2c1 [Example 118] | 5% |  | 73.1 nM | 276 nM |  | Ki [2]: 10 nM; D2 Ki/5-HT1A Ki [5]: 3.8; D2 Ki/5-HT2A Ki [5]: 27.6
O=C1c2nc(Cl)ccc2CCN1CCN1CCC(c2noc3ccccc23)CC1 [Example 146] |  | <0.05 mL/min/mg protein |  |  | 2.3 | 
O=C1c2ncccc2CCN1CCN1CCC(c2noc3cc(F)c(F)cc23)CC1 [Example 148] |  |  |  |  |  | 5-HT2A antagonist activity ([9]; at 10 μM): 45% at 10 μM
COc1ncc2c(n1)CCN(CCN1CCN(c3noc4ccccc34)CC1)C2=O [Example 179] |  | <0.05 mL/min/mg protein | 283 nM | > 10000 nM |  | Ki [2]: 22.9 nM; IC50 [6]: > 10000 nM; hERG inhibition IC50 (nmol/L)/5-HT1A Ki (nmol/L) ([6]; ratio of hERG IC50 to 5-HT1A Ki): >35; hERG inhibition IC50 (nmol/L)/5-HT2A Ki (nmol/L) ([6]; ratio of hERG IC50 to 5-HT2A Ki): >438; D2 Ki/5-HT1A Ki [5]: >35.3; D2 Ki/5-HT2A Ki [5]: >437.6
CCc1ccc2c(n1)C(=O)N(CCN1CCC(c3noc4ccccc34)CC1)CC2 [Example 185] |  | <0.05 mL/min/mg protein |  |  | 2.4 | 
COc1ccc2c(n1)C(=O)N(CCN1CCN(c3noc4ccccc34)CC1)CC2 [Example 186] | 39% | 0.095 mL/min/mg protein | 16.5 nM | 1280 nM |  | EC50 [1]: 97 nM; IC50 [6]: 2000 nM
COc1ccc2c(n1)C(=O)N(CCN1CCC(c3noc4ccccc34)CC1)CC2 [Example 187] | 55% | <0.05 mL/min/mg protein | 1.59 nM |  |  | EC50 [1]: 38.2 nM; Ki [2]: 14.5 nM; IC50 ([9]; CHO-K1 cells, aequorin/Gα16, 1 nmol/L 5-HT): 89.7 nM
